Measured values from publication PMC9569988 (International Journal of Molecular Sciences, 2022).
“And” between values parts separate entries of the source, which are not always exact repeats. Identical values can stand only once. “Also recorded” adds a separate entry of the source.

How the values were obtained:
[1] = tested on: SADS-CoV; experiment: microbe, parasite or virus in culture; format: cell-based, Swine acute diarrhea syndrome coronavirus; conditions: for inhibition at 10 µM: Swine acute diarrhea syndrome coronavirus, Huh-7, read-out: inhibition rate of SADS-CoV viral replication (qPCR)
[2] = tested on: SADS-CoV; experiment: microbe, parasite or virus in culture; format: cell-based; conditions: Swine acute diarrhea syndrome coronavirus, Huh-7
[3] = tested on: SADS-CoV; format: cell-based, Swine acute diarrhea syndrome coronavirus
[4] = tested on: SADS-CoV; format: cell-based, Swine acute diarrhea syndrome coronavirus; remark: listed apart in the source
[5] = tested on: SADS-CoV; format: cell-based, Swine acute diarrhea syndrome coronavirus; remark: listed apart in the source
[6] = tested on: SADS-CoV; format: cell-based, Swine acute diarrhea syndrome coronavirus; remark: listed apart in the source
[7] = tested on: SADS-CoV; format: cell-based, Swine acute diarrhea syndrome coronavirus; remark: listed apart in the source
[8] = in vitro; conditions: human
[9] = tested on: SADS-CoV; format: cell-based, Swine acute diarrhea syndrome coronavirus; remark: listed apart in the source
[10] = tested on: SADS-CoV nucleocapsid protein; format: cell-based, Swine acute diarrhea syndrome coronavirus
[11] = tested on: Huh7 cells

Row | Compound | CPE inhibition in SADS-CoV infection [1] | inhibition at 10 µM [1] | EC50 [2] | decrease of viral RNA expression in the cells [3] | viral titers in the supernatant (infectious progeny) [4] | effect on virus internalization [5] | SADS-CoV titer (TCID50) at 24 hpi [6] | virus RNA level in the supernatant when added after virus entry [7] | CC50 [8] | effect on virus binding compared with positive control [9] | decrease of viral RNA in the supernatant [7] | expression of viral proteins in cells (immunoblot) [10] | CC50 [11] | decrease of SADS-CoV RNA in binding assay [9] | reduction of viral RNA compared with the positive control [7] | viral RNA decrease [7]
1 | COc1ccc2cc1Oc1ccc(cc1)C[C@H]1c3c(cc4c(c3Oc3cc5c(cc3OC)CCN(C)[C@@H]5C2)OCO4)CCN1C [Cepharanthine] | significantly exhibited CPE inhibitions | > 60% | 0.789 µM | 72.9% and 57.5% | at the ”Entry” stage could reduce infectious progeny | less function | viral titer was decreased; also recorded: also effective; also recorded: showed a reduction in SADS-CoV viral progeny | could not inhibit SADS-CoV replication | 16.2 µM |  |  |  |  |  |  | 
2 | COc1c(C)c2c(c(O)c1C/C=C(\C)CCC(=O)OCCN1CCOCC1)C(=O)OC2 [Mycophenolate mofetil] | significantly exhibited CPE inhibitions | > 60% | 1.7 µM | 91.5% and 65.8% | exhibited inhibitory effects only when they were added after viral entry | no statistically significant difference |  |  | > 100 µM | no statistically significant difference | 0.5 log | inhibition effect | low cytotoxicity |  |  | 
3 | COc1c(C)c2c(c(O)c1C/C=C(\C)CCC(=O)O)C(=O)OC2 [Mycophenolic acid] | significantly exhibited CPE inhibitions | > 60% | 0.56 µM | 96.7% and 93.9% | exhibited inhibitory effects only when they were added after viral entry | no statistically significant difference |  |  | > 100 µM | no statistically significant difference | 0.9 log | inhibition effect | low cytotoxicity |  |  | 
4 | CN(C)c1ccc2nc3ccc(=[N+](C)C)cc-3sc2c1 [Methylene blue] | significantly exhibited CPE inhibitions | > 60% | 0.217 µM |  | strong inhibitory activity against viral replication during both periods | no distinct effect | inhibit SADS-CoV infection; also recorded: inhibition effect got better |  | > 25 µM |  |  | inhibition of viral protein expression | low cytotoxicity | 78.5% and 88.5% | 2- to 3 log | 3 log
5 | Nc1ccn([C@@H]2O[C@H](CO)[C@@H](O)C2(F)F)c(=O)n1 [Gemcitabine] | significantly exhibited CPE inhibitions | > 60% | 0.117 µM | less remarkable differences | exhibited inhibitory effects only when they were added after viral entry | no statistically significant difference |  |  | 88.5 µM | no statistically significant difference | 1.8 log | inhibition effect | low cytotoxicity |  |  | 
